Among the data in US9226500B2, “Pesticidal compositions and processes related thereto” (Dow AgroSciences LLC, priority 2012, dated 2016) are pest or weed control values, retold here.

Molecules are shown by their SMILES.

The subject of assay [1] is Beet Armyworm (Spodoptera exigua). The experiment in a line: Bioassay on Beet Armyworm (BAW), 128-well diet tray assay. The class given is in vivo. The conditions noted are these: Spodoptera exigua, 168 h; percent mortality of second instar larvae, 50 μg/cm^2 on artificial diet, five to seven days, 25° C.; read-out: BAW Rating.
In assay [2] the test system is Cabbage Looper (Trichoplusia ni). The experiment in a line: Bioassay on Cabbage Looper (CL), 128-well diet tray assay. Type of assay: in vivo. Conditions: 168 h, percent mortality of second instar larvae, 50 μg/cm^2 on artificial diet, five to seven days, 25° C., read-out: CL Rating. The procedure: Certain molecules disclosed in this document were tested against BAW, CEW and CL using procedures described in the following examples. In the reporting of the results, the “BAW & CEW & CL Rating Table” was used (See Table Section).
Bioassays on CL (Trichoplusia ni)
Bioassays on CL were conducted using a 128-well diet tray assay. One to five second instar CL larvae were placed in each well (3 mL) of the diet tray that had been previously filled with 1 mL of artificial diet to which 50 μg/cm^2 of the test compound (dissolved in 50 μL of 90:10 acetone-water mixture) had been applied (to each of eight wells) and then allowed to dry. Trays were covered with a clear self-adhesive cover, and held at 25° C., 14:10 light-dark for five to seven days. Percent mortality was recorded for the larvae in each well; activity in the eight wells was then averaged.
“Table 4: Assay Results Part 2” (See Table Section).

On to `C[C@@H](NC(=O)c1ccc(/C=C/C(c2cc(Cl)c(Cl)c(Cl)c2)C(F)(F)F)cc1Br)C(=O)NCC(F)(F)F` (stereo partly shown) [Compound F6], for which the pest or weed control at 50 µg/cm2, 50 µg/cm2 in assay [1] and in assay [2] was 50 to 100% each time.
For the compound `Cc1cc(/C=C/C(c2cc(Cl)c(Cl)c(Cl)c2)C(F)(F)F)ccc1C(=O)N[C@H](C)C(=O)NCC(F)(F)F` (stereo partly shown) [Compound F7], the pest or weed control at 50 µg/cm2, 50 µg/cm2 in assay [1] and in assay [2] was 50 to 100% each time.
Regarding `CCC(NC(=O)c1ccc(/C=C/C(c2cc(Cl)c(Cl)c(Cl)c2)C(F)(F)F)cc1Br)C(=O)NCC(F)(F)F` (stereo not shown) [Compound F8A], the pest or weed control at 50 µg/cm2, 50 µg/cm2 in assay [1] and in assay [2] was 50 to 100% in each case.
As to `CC[C@H](NC(=O)c1ccc(/C=C/C(c2cc(Cl)c(Cl)c(Cl)c2)C(F)(F)F)cc1Br)C(=O)NCC(F)(F)F` (stereo partly shown) [Compound F8], the pest or weed control at 50 µg/cm2, 50 µg/cm2 in assay [1] and in assay [2] was 50 to 100% throughout.
As for `Cc1cc(/C=C/C(c2cc(Cl)c(Cl)c(Cl)c2)C(F)(F)F)ccc1C(=O)N[C@@H](C)C(=O)NCC(F)(F)F` (stereo partly shown) [Compound F9], the pest or weed control at 50 µg/cm2, 50 µg/cm2 in assay [1] and in assay [2] was 50 to 100% in each case.
For `C[C@@H](NC(=O)c1ccc(/C=C/C(c2cc(C(F)(F)F)cc(C(F)(F)F)c2)C(F)(F)F)cc1Br)C(=O)NCC(F)(F)F` (stereo partly shown) [Compound F14], the pest or weed control at 50 µg/cm2, 50 µg/cm2 in assay [1] and in assay [2] was 50 to 100% throughout.
Take `CCC(NC(=O)c1ccc(/C=C/C(c2cc(Cl)c(Cl)c(Cl)c2)C(F)(F)F)cc1C)C(=O)NCC(F)(F)F` (stereo not shown) [Compound F15A]: the pest or weed control at 50 µg/cm2, 50 µg/cm2 in assay [1] and in assay [2] was 50 to 100% each time.
Turning to `CC[C@H](NC(=O)c1ccc(/C=C/C(c2cc(Cl)c(Cl)c(Cl)c2)C(F)(F)F)cc1C)C(=O)NCC(F)(F)F` (stereo partly shown) [Compound F15], the pest or weed control at 50 µg/cm2, 50 µg/cm2 in assay [1] and in assay [2] was 50 to 100% throughout.
For the compound `CCC(NC(=O)c1ccc(/C=C/C(c2cc(Cl)c(Cl)c(Cl)c2)C(F)(F)F)cc1C(F)(F)F)C(=O)NCC(F)(F)F` (stereo not shown) [Compound F16A], the pest or weed control at 50 µg/cm2, 50 µg/cm2 in assay [1] and in assay [2] was 50 to 100% throughout.
For the compound `CC[C@H](NC(=O)c1ccc(/C=C/C(c2cc(Cl)c(Cl)c(Cl)c2)C(F)(F)F)cc1C(F)(F)F)C(=O)NCC(F)(F)F` (stereo partly shown) [Compound F16], the pest or weed control at 50 µg/cm2, 50 µg/cm2 in assay [1] and in assay [2] was 50 to 100% throughout.
Turning to `Cc1cc(/C=C/C(c2cc(Br)cc(Br)c2)C(F)(F)F)ccc1C(=O)N[C@H](C)C(=O)NCC(F)(F)F` (stereo partly shown) [Compound F17], the pest or weed control at 50 µg/cm2, 50 µg/cm2 in assay [1] and in assay [2] was 50 to 100% in each case.
With `C[C@H](NC(=O)c1ccc(/C=C/C(c2cc(Cl)c(Cl)c(Cl)c2)C(F)(F)F)cc1C(F)(F)F)C(=O)NCC(F)(F)F` (stereo partly shown) [Compound F18], the pest or weed control at 50 µg/cm2, 50 µg/cm2 in assay [1] and in assay [2] was 50 to 100% throughout.
As for `C[C@@H](NC(=O)c1ccc(/C=C/C(c2cc(Br)cc(Br)c2)C(F)(F)F)cc1Br)C(=O)NCC(F)(F)F` (stereo partly shown) [Compound F19], the pest or weed control at 50 µg/cm2, 50 µg/cm2 in assay [1] and in assay [2] was 50 to 100% throughout.
Regarding `C[C@@H](NC(=O)c1ccc(/C=C/[C@@H](c2cc(Cl)c(Cl)c(Cl)c2)C(F)(F)F)cc1C(F)(F)F)C(=O)NCC(F)(F)F` [Compound F20B, N—((R)-1-Oxo-1-((2,2,2-trifluoroethyl)amino)propan-2-yl)-4-((E)-4,4,4-trifluoro-3-(3,4,5-trichlorophenyl)but-1-en-1-yl)-2-(trifluoromethyl)benzamide], the pest or weed control at 50 µg/cm2, 50 µg/cm2 in assay [1] and in assay [2] was 50 to 100% throughout.
For `C[C@@H](NC(=O)c1ccc(/C=C\C(c2cc(Cl)c(Cl)c(Cl)c2)C(F)(F)F)cc1C(F)(F)F)C(=O)NCC(F)(F)F` (stereo partly shown) [Compound F20C], the pest or weed control at 50 µg/cm2, 50 µg/cm2 in assay [1] and in assay [2] was 50 to 100% throughout.
For `C[C@@H](NC(=O)c1ccc(/C=C/C(c2cc(Br)cc(Br)c2)C(F)(F)F)cc1C(F)(F)F)C(=O)NCC(F)(F)F` (stereo partly shown) [Compound F21], the pest or weed control at 50 µg/cm2, 50 µg/cm2 in assay [1] and in assay [2] was 50 to 100% in each case.
As for `C[C@@H](NC(=O)c1ccc(/C=C/C(c2cccc(C(F)(F)F)c2)C(F)(F)F)cc1Br)C(=O)NCC(F)(F)F` (stereo partly shown) [Compound F22], the pest or weed control at 50 µg/cm2, 50 µg/cm2 in assay [1] and in assay [2] was 50 to 100% throughout.
As to `CCC(NC(=O)c1ccc(/C=C/C(c2cc(Cl)c(Cl)c(Cl)c2)C(F)(F)F)cc1Cl)C(=O)NCC(F)(F)F` (stereo not shown) [Compound F23A], the pest or weed control at 50 µg/cm2, 50 µg/cm2 in assay [1] and in assay [2] was 50 to 100% each time.
As to `C[C@@H](NC(=O)c1ccc(/C=C/C(c2cc(F)cc(C(F)(F)F)c2)C(F)(F)F)cc1Br)C(=O)NCC(F)(F)F` (stereo partly shown) [Compound F24], the pest or weed control at 50 µg/cm2, 50 µg/cm2 in assay [1] and in assay [2] was 50 to 100% each time.
Turning to `C[C@@H](NC(=O)c1ccc(/C=C/C(c2cc(Cl)c(Cl)c(Cl)c2)C(F)(F)F)cc1Cl)C(=O)NCC(F)(F)F` (stereo partly shown) [Compound F25], the pest or weed control at 50 µg/cm2, 50 µg/cm2 in assay [1] and in assay [2] was 50 to 100% each time.
As to `Cc1cc(/C=C/C(c2cc(Cl)c(Cl)c(Cl)c2)C(F)(F)F)ccc1C(=O)N[C@H](C)C(=S)NCC(F)(F)F` (stereo partly shown) [Compound F26], the pest or weed control at 50 µg/cm2, 50 µg/cm2 in assay [1] and in assay [2] was 50 to 100% each time.
With `C[C@@H](NC(=O)c1ccc(/C=C/C(c2cc(Cl)c(Cl)c(Cl)c2)C(F)(F)F)cc1Br)C(=S)NCC(F)(F)F` (stereo partly shown) [Compound F27], the pest or weed control at 50 µg/cm2, 50 µg/cm2 in assay [1] and in assay [2] was 50 to 100% each time.
For `C[C@@H](NC(=O)c1ccc(/C=C/C(c2cc(Cl)c(Cl)c(Cl)c2)C(F)(F)F)cc1C(F)(F)F)C(=S)NCC(F)(F)F` (stereo partly shown) [Compound F28], the pest or weed control at 50 µg/cm2, 50 µg/cm2 in assay [1] and in assay [2] was 50 to 100% throughout.
`Cc1cc(/C=C/C(c2cc(Cl)c(Cl)c(Cl)c2)C(F)(F)F)ccc1C(=O)NC(C)(C)C(=S)NCC(F)(F)F` (stereo not shown) [Compound F29]: the pest or weed control at 50 µg/cm2, 50 µg/cm2 in assay [1] and in assay [2] was 50 to 100% in each case.
As to `C[C@@H](NC(=O)c1ccc(/C=C/C(c2cc(Cl)c(Cl)c(Cl)c2)C(F)(F)F)cc1Cl)C(=S)NCC(F)(F)F` (stereo partly shown) [Compound F30], the pest or weed control at 50 µg/cm2, 50 µg/cm2 in assay [1] and in assay [2] was 50 to 100% each time.
Turning to `Cc1cc(/C=C/C(c2cc(Cl)c(Cl)c(Cl)c2)C(F)(F)F)ccc1C(=S)NC(C)(C)C(=S)NCC(F)(F)F` (stereo not shown) [Compound F31, (E)-2-Methyl-N-(2-methyl-1-thioxo-1-(2,2,2-trifluoroethylamino)propan-2-yl)-4-(4,4,4-trifluoro-3-(3,4,5-trichlorophenyl)but-1-enyl)benzothioamide], the pest or weed control at 50 µg/cm2, 50 µg/cm2 in assay [1] and in assay [2] was 50 to 100% each time.
